The record followed here is PMC11173485, “Connecting GSK-3β Inhibitory Activity with IKK-β or ROCK-1 Inhibition to Target Tau Aggregation and Neuroinflammation in Alzheimer’s Disease—Discovery, In Vitro and In Cellulo Activity of Thiazole-Based Inhibitors” (Molecules, 2024).

The viability is a read-out of living cells in per cent, often relative to untreated cells. The IC50 is the concentration that inhibits the measured activity by half.

Series [1] deals with okadaic acid treated HT-22 cells. Description: Okadaic-acid-induced tau hyperphosphorylation cell model, cell viability. The series is classed as cell-based, mouse. The settings on record: okadaic acid 400 nM. Here is the method:
We evaluated the neuroprotective properties of the selected compounds in an okadaic-acid-induced tau hyperphosphorylation cell model. Okadaic acid, acting as a phosphatase inhibitor, induces hyperphosphorylation and accumulation of neurofilaments in the cells, thereby mirroring the hyperphosphorylated, tau-induced neurodegeneration observed in AD brain [55, 56]. […] Compounds 50 and 58 were not active.
HT-22 cells were seeded into 96-well plates at a density of 2 × 10^4 cells per well. Okadaic acid (Merck) was added at a concentration of 400 nM and incubated for 3 h. After this time, 10, 1, and 0.1 µM of tested compounds were added and incubated in the aseptic conditions (37 °C, 5% CO2). Cell viability was determined using Presto Blue assay after 24 h. All data were normalized to the percentage survival of vehicle control. Data are represented as mean SD versus vehicle control.
(§1) Figure 4 (A) Results of the okadaic-acid-induced hyperphosphorylation assay. The HT-22 cells were pretreated for 3 h with okadaic acid (400 nM), and the tested compounds, at the increasing non-cytotoxic concentrations, were determined using a viability assay (or with the vehicle, 10 µM DMSO in the control sample). Cell viability was measured using the PrestoBlue^TM cell viability reagent. (B–D) Results of anti-inflammatory assays in LPS-treated (100 ng/mL) BV-2 cell line. The final compounds and references were tested at increasing non-cytotoxic concentrations and with DMSO as a control sample. NO release was measured using a fluorometric assay with 2,3-diaminonaphthalene (DAN). The IL-6 and TNF-α levels were measured using an LANCE Ultra TR-FRET Detection Kit (Perkin Elmer). Statistical analysis was performed using GraphPad Prism 9.0.0. All values are expressed as mean with SD. Differences among groups were evaluated using one-way ANOVA followed by post hoc analysis (Dunnett’s multiple comparison tests) and were considered statistically significant if p < 0.05 (* p < 0.05, ** p < 0.01, and **** p < 0.0001).

Series [2] relates to BV-2 (mouse microglial cells). Description: Cytotoxicity, PrestoBlue cell viability assay in BV-2 cells. The settings on record: for effect on cell viability in BV-2 cells (in words): 0.1, 1, 10, 50, and 100 µM. The class given is cell-based. Here is the method: (§2) We assessed their cytotoxic effects at five concentrations (0.1, 1, 10, 50, and 100 µM) in HT-22 (mouse hippocampal neuronal cells) and BV-2 (mouse microglial cells) cell lines using a fluorometric assay with PrestoBlue™ cell viability reagent (Table 4, Table S2 in the SI).
(§3) Mouse microglial cells (BV-2) were a generous gift from Professor Bozena Kaminska-Kaczmarek of the Laboratory of Molecular Neurobiology, Neurobiology Center, Nencki Institute of Experimental Biology, Polish Academy of Sciences, Warsaw, Poland. Cells were cultured in Dulbecco’s modified Eagle’s Medium-high glucose (DMEM, Glutamx Thermo Fisher, Waltham, MA, USA) supplemented with 10% inactivated fetal bovine serum (Thermo Fisher), 100 IU/mL penicillin (Merck), and 100 µg/mL streptomycin (Merck). Cells were cultured in flasks (area 175 cm^2, Nunc) and incubated at 37 °C, 5% CO2. To evaluate the level of NO, IL-6, and TNF-α and the effectiveness of the compounds tested, BV-2 microglia cells were cultured in 96-well culture plates (5 × 10^4 cells per well, Falcon). For the measurement of cell viability and cell membrane damage, cells were placed in 96-well culture plates (2 × 10^4 cells per well, Falcon). Before the tests, cells were grown for 24 h in the incubator (37 °C, 5% CO2). Mouse Hippocampal Neuronal Cell Line (HT-22) was a generous gift from Dr Bartosz Pomierny of the Department of Biochemical Toxicology, Jagiellonian University Medical College, Krakow, Poland. Cells were cultured in Dulbecco’s modified Eagle’s Medium-high glucose (DMEM, Glutamx Thermo Fisher) supplemented with 10% inactivated fetal bovine serum (Thermo Fisher), 100 IU/mL penicillin (Merck), and 100 µg/mL streptomycin (Merck). Cells were cultured in flasks (area 175 cm^2, Nunc) and incubated at 37 °C, 5% CO2. For the measurement of cell viability and neuroprotective effects against okadaic acid, cells were placed in 96-well culture plates (2 × 10^4 cells per well, Falcon). Before the tests, cells were grown for 24 h in the incubator (37 °C, 5% CO2).
(§4) Cell viability was evaluated using the PrestoBlue reagent (Thermo Fisher), according to the manufacturer’s procedures. Following 24 h of incubation with the tested molecule, PrestoBlue reagent was added to a microplate well in an amount equal to one-tenth of the remaining medium volume. The resulting mixture was incubated for 15 min at 37 °C, and the fluorescence intensity (EX 530; EM 580 nm) was measured using the plate reader POLARstar Omega, (BMG Labtech, Ortenberg, Germany). The results (viability values) are provided as a percentage of live cells with respect to DMSO (control sample).
(§5) Cytotoxic effects of selected inhibitors in HT-22 mouse hippocampal neuronal cells and BV-2 mouse microglial cells
(§6) Table S2. Cytotoxic effects of selected inhibitors in HT-22 mouse hippocampal neuronal cells and BV-2 mouse microglial cells. neurotoxicity in HT-22 cellsa immunotoxicity in BV-2 cellsa […]
(§7) a % of cell viability at the given concentration of tested compound; mean value ± standard deviation (SD) of triplicates; b half maximal inhibitory concentration of the tested compound; mean value ± standard error of the mean (SEM) of triplicates; c data obtained in log C of 39 of -8.5; -7.5; -6.5; -5.5; -5, respectively; d data obtained in log C of 49 of -7.5; -6.5; -5.5; -4.5; -4. respectively; nt, not tested.

Experiment in series [3]: as above
The following applies: mouse, BV-2 microglial cells, 24 h; for viability at 24 h, 1 µM: 1 µM (log C -6); for viability at 24 h, 1 µM / viability at 24 h, 10 µM / viability at 24 h, 50 µM / viability at 24 h, 100 µM / viability at 24 h, 0.1 µM: read-out: immunotoxicity in BV-2 cells, % of cell viability; for viability at 24 h, 10 µM: 10 µM (log C -5); for viability at 24 h, 50 µM: 50 µM (log C -4.3); for viability at 24 h, 100 µM: 100 µM (log C -4); for IC50 at 24 h: PrestoBlue, mean ± SEM, read-out: Cytotoxicity in BV-2 Cells (IC50 x¯ ± SEM µM). The series is classed as cell-based, mouse. Here is the method:
as §2, §3, §4, §5, §6, §7

The test system of series [4] is NO release, LPS-treated BV-2 cells. Description: NO release in LPS-treated BV-2 cells (DAN fluorometric assay). The series is classed as cell-based, mouse. The settings on record: LPS 100 ng/mL, 18 h.
Excerpt: Lipopolysaccharide (LPS) is a potent pro-inflammatory stimulus triggering the extensive production of inflammatory mediators, including cytokines and chemokines. Consequently, it finds widespread application in inducing in vitro and in vivo models of sepsis and inflammation, including neuroinflammation. In this study, we employed LPS in the BV-2 cell line and assessed the impact of the selected compounds on the levels of NO, IL-6, and TNF-α production (Figure 4B–D). […] Moreover, all compounds surpassed the reference compound in these assays.
The cells were pretreated with tested compounds for 1 h. After this time, lipopolysaccharide (100 ng/mL) was added and the resulting mixture was incubated for 18 h. Next, the culture supernatant was acquired to measure the levels of nitric oxide (NO), IL-6, and TNF-α, according to the following procedures.
The NO level in the culture supernatants was measured using 2,3-diaminonaphthalene (DAN) reagent, according to the method of Nussler et al.. After 15 min of incubation at room temperature, the fluorescence intensity (EX 360; EM 440 nm) was measured using a microplate reader POLARstar Omega, (BMG Labtech). The values of nitric oxide were calculated as a percentage of control (maximal response of LPS).
as §1

Bounds are passed on as bounds.

Take `NC(=O)Nc1cc(-c2ccnc(NC(=O)C3CCC3)c2)sc1C(N)=O` [Compound 50, 5-(2-(Cyclobutanecarboxamido)pyridin-4-yl)-3-ureidothiophene-2-carboxamide]: in series [1] (10, 1, and 0.1 µM), the “activity in okadaic-acid-induced hyperphosphorylation assay (in words)” value is listed as “not active”. Moreover, the “effect on cell viability in BV-2 cells (in words)” value in series [2] is “no significant decrease in cell viability”. Moreover, in series [3], the viability at 24 h, 1 µM amounted to 107%; the viability at 24 h, 10 µM worked out at 114%; the viability at 24 h, 50 µM was 96%; the viability at 24 h, 100 µM came out at 50%. Moreover, in series [3], the IC50 at 24 h was more than 100 µM and the viability at 24 h, 0.1 µM was 101%. Moreover, the “NO level (in words)” value in series [4] (1 µM) is recorded as “reduced NO levels”. Moreover, the “NO level (in words)” value in series [4] (10 µM) is “significantly decreased”.

In the case of `O=C1NC2(CCOC2)Nc2cc(-c3ccnc(NC(=O)C4CC4)c3)sc21` (stereo not drawn) [Compound 62, N-(4-(4′-Oxo-3′,4,4′,5-tetrahydro-1′H,2H-spiro[furan-3,2′-thieno [3,2-d]pyrimidin]-6′-yl)pyridin-2-yl)cyclopropanecarboxamide], in series [1] (10 µM compound, 3 h, viability after 24 h), the “cell viability after okadaic acid (in words)” value is “increased cell viability”. Also, the “effect on cell viability in BV-2 cells (in words)” value in series [2] was “decreased cells’ viability”. The “effect on viability of BV-2 cells at concentrations up to 10 µM (in words)” value in series [2] (up to 10 µM) is listed as “did not decrease the viability of the cells”. Also, in series [3], the viability at 24 h, 1 µM was 106%; the viability at 24 h, 10 µM came out at 105%; the viability at 24 h, 50 µM is 5%; the viability at 24 h, 100 µM was 2%. Further, in series [3], the IC50 at 24 h was 54.8 ± 1.9 µM and the viability at 24 h, 0.1 µM stood at 105%. Also, the “NO level (in words)” value in series [4] (1 µM) is “reduced NO levels”. Also, the “NO level (in words)” value in series [4] (10 µM) was “significantly decreased”.
